Among the data in US5066783A, “Antiviral peptides and means for treating herpes infections” (priority 1988, dated 1991) are IC50 values, retold here.

Values joined by “and” are separate entries in the source; they are usually repeats but may differ in a detail not shown here. Identical values can stand only once. Where a SMILES comes first, the peptide text is derived from it. Where no end group is shown, it is not given here. [ ]: non-standard residue; d: D form. The star is where a group is joined. Phe(4-NO2) = N[C@@H](Cc1ccc([N+](=O)[O-])cc1)C(=O)O; Phe(4-NH2) = Nc1ccc(C[C@H](N)C(=O)O)cc1; Desaminotyrosyl = O=C(CCc1ccc(O)cc1)*

T1 sequence (P08543 whole entry): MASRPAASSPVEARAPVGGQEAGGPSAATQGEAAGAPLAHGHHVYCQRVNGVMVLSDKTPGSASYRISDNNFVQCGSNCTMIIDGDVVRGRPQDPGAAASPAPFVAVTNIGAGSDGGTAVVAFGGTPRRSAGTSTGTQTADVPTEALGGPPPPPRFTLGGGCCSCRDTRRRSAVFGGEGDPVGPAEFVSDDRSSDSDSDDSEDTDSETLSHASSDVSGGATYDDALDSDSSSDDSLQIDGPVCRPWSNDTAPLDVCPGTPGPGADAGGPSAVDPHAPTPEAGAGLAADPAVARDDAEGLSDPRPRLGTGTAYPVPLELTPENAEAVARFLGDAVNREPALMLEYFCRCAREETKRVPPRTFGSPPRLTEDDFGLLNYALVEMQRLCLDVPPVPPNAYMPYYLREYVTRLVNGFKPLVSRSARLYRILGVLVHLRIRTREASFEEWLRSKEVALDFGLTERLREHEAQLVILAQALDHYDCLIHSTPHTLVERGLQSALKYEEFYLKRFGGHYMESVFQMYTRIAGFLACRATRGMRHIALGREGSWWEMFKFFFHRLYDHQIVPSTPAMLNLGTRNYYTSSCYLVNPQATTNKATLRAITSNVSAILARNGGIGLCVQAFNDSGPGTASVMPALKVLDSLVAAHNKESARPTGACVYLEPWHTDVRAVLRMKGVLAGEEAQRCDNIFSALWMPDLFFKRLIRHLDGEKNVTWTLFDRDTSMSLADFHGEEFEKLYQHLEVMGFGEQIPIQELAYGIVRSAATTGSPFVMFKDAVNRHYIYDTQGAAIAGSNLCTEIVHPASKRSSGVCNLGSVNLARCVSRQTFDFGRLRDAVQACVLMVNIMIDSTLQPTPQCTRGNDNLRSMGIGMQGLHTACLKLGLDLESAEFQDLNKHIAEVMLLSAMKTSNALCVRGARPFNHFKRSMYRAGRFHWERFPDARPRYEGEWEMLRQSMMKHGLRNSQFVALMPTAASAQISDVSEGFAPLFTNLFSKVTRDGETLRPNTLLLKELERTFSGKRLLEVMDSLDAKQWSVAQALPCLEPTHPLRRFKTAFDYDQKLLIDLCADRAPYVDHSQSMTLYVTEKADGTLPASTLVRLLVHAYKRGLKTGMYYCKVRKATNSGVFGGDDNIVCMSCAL

One assay concerns the target T1, herpes simplex viral ribonucleotide reductase (Human herpesvirus 1, UniProt P08543).
T1 construct: endogenous in cells
Nature of the assay: biochemical. It counts as biochemical, herpes simplex virus.
Conditions: not given
`CC[C@H](C)[C@H](NC(=O)[C@@H](NC(=O)[C@H](Cc1ccc(OC)cc1)NC(C)=O)C(C)C)C(=O)N[C@@H](CC(N)=O)C(=O)N[C@@H](CC(=O)O)C(=O)N[C@@H](CC(C)C)C(=O)O` [Ac--Tyr(OMe)--Val--Ile--Asn--Asp--Leu--OH] (Ac-Y(Me)VINDL-OH) had an IC50 of 24 µM.

As to `CC[C@H](C)[C@H](NC(=O)[C@@H](NC(=O)CCc1ccc(O)cc1)C(C)C)C(=O)N[C@@H](CC(N)=O)C(=O)N[C@@H](CC(=O)O)C(=O)N[C@@H](CC(C)C)C(=O)O` [desamino-Tyr--Val--Ile--Asn--Asp--Leu--OH] (Desaminotyrosyl-VINDL-OH), the IC50 was found to be 17 µM.

For the compound “Ac-FVINDL-OH [Ac--Phe--Val--Ile--Asn--Asp--Leu--OH]”, the IC50 is 42 µM.

Take “Ac-YAATVINDL-OH [Ac--Tyr--Ala--Ala--Thr--Val--Ile--Asn--Asp--Leu--OH]”: the IC50 was 15 µM.

In the case of “Ac-YAGTIVNDL-OH [Ac--Tyr--Ala--Gly--Thr--Ile--Val--Asn--Asp--Leu--OH]”, the IC50 was found to be 4.9 µM.

In turn, “Ac-YAGTVIQDL-OH [Ac--Tyr--Ala--Gly--Thr--Val--Ile--Gln--Asp--Leu--OH]” gave an IC50 of 36.5 µM.

In the case of “Ac-YSVINDL-OH [Ac--Tyr--Ser--Val--Ile--Asn--Asp--Leu--OH]”, the IC50 is 77 µM.

Regarding “Ac-YVINDL-OH [Ac--Tyr--Val--Ile--Asn--Asp--Leu--OH]”, the IC50 came out at 27 µM.

As to “Ac-YVVNDL-OH [Ac--Tyr--Val--Val--Asn--Asp--Leu--OH]”, the IC50 amounted to 31 µM.

On to “H-FAGAVVNDL-OH [H--Phe--Ala--Gly--Ala--Val--Val--Asn--Asp--Leu--OH]”, for which the IC50 came to 68 µM.

“H-YAGAVLDDL-OH [H--Tyr--Ala--Gly--Ala--Val--Leu--Asp--Asp--Leu--OH]” displayed an IC50 of 90 µM.

“H-YAGAVVNDI-OH [H--Tyr--Ala--Gly--Ala--Val--Val--Asn--Asp--Ile--OH]” showed an IC50 of 110 µM.

Still in this assay, the particulars now being: 75 μg enzyme preparation (21.6 units mg^-1); mean of four assays.
`CC[C@H](C)[C@H](NC(=O)[C@H](CC(=O)O)NC(=O)[C@H](CC(N)=O)NC(=O)[C@@H](NC(=O)[C@@H](NC(=O)[C@H](C)NC(=O)CNC(=O)[C@H](C)NC(=O)[C@H](Cc1ccc(O)cc1)NC(=O)[C@@H](N)Cc1ccc(N)cc1)C(C)C)C(C)C)C(=O)O` [H--(4-NH2 -Phe)--Tyr--Ala--Gly--Ala--Val--Val--Asn--Asp--Ile--OH] (H-[Phe(4-NH2)]YAGAVVNDI-OH) gave an IC50 of 15 µM.

Turning to `CC[C@H](C)[C@H](NC(=O)[C@H](CC(=O)O)NC(=O)[C@H](CC(N)=O)NC(=O)[C@@H](NC(=O)[C@@H](NC(=O)[C@H](C)NC(=O)CNC(=O)[C@H](C)NC(=O)[C@H](Cc1ccc(O)cc1)NC(=O)[C@@H](N)Cc1ccc([N+](=O)[O-])cc1)C(C)C)C(C)C)C(=O)O` [H--(4-NO2 -Phe)--Tyr--Ala--Gly--Ala--Val--Val--Asn--Asp--Ile--OH] (H-[Phe(4-NO2)]YAGAVVNDI-OH), the IC50 worked out at 6.8 µM.

`CC(C)C[C@H](NC(=O)[C@H](CC(=O)O)NC(=O)[C@H](CC(N)=O)NC(=O)[C@@H](NC(=O)[C@@H](NC(=O)[C@H](C)NC(=O)CNC(=O)[C@H](C)NC(=O)[C@H](Cc1ccc(O)cc1)NC(=O)CCCCCCCN)C(C)C)C(C)C)C(=O)O` [NH2 (CH2)7 CO--Tyr--Ala--Gly--Ala--Val--Val--Asn--Asp--Leu--OH] showed an IC50 of 12.3 µM.

In the case of “Ac-Y(Ac)AGFVINDL [Ac--Tyr(OAc)--Ala--Gly--Phe--Val--Ile--Asn--Asp--Leu--OH]”, the IC50 worked out at 14 µM.

“Ac-YAGFVINDL-OH [Ac--Tyr--Ala--Gly--Phe--Val--Ile--Asn--Asp--Leu--OH]” displayed an IC50 of 4.2 µM.

Compound “H-HAGAVVNDL-OH [H--His--Ala--Gly--Ala--Val--Val--Asn--Asp--Leu--OH]” gave an IC50 of 400 µM.

Still in this assay, the particulars now being: IC50 (concentration producing 50% of the maximal inhibition of enzyme activity).
For “Ac-YAGTVINDL-OH [Ac--Tyr--Ala--Gly--Thr--Val--Ile--Asn--Asp--Leu--OH]”, the IC50 is 2 µM and 5.2 µM.

The compound “Ac-YAGVVINDL-OH [Ac--Tyr--Ala--Gly--Val--Val--Ile--Asn--Asp--Leu--OH]” had an IC50 of 4.3 µM.

“Ac-YSGTVINDL-OH [Ac--Tyr--Ser--Gly--Thr--Val--Ile--Asn--Asp--Leu--OH]”: the IC50 is 1.9 µM.

The assay is the same for the next values; noted with them: read-out: IC50 (concentration producing 50% of the maximal inhibition of enzyme activity).
Take `CC(=O)N[C@H](Cc1ccc(O)cc1)C(=O)N[C@@H](C)C(=O)NCC(=O)N[C@@H](C)C(=O)N[C@H](C(=O)N[C@H](C(=O)N[C@@H](CC(N)=O)C(=O)N[C@@H](CC(=O)O)C(=O)N[C@@H](CC(C)C)C(=O)O)C(C)C)C(C)C` [Ac--D--Tyr--Ala--Gly--Ala--Val--Val--Asn--Asp--Leu--OH]: the IC50 came out at 165 µM.

As to `CC(=O)N[C@@H](Cc1ccc(O)cc1)C(=O)N[C@@H](C)C(=O)NCC(=O)N[C@@H](C)C(=O)N[C@H](C(=O)N[C@H](C(=O)N[C@@H](CC(N)=O)C(=O)N[C@@H](CC(=O)O)C(=O)N[C@@H](CC(C)C)C(=O)O)C(C)C)C(C)C` [Ac--Tyr--Ala--Gly--Ala--Val--Val--Asn--Asp--Leu--OH], the IC50 amounted to 20 µM.

Consider `CC(=O)N[C@@H](Cc1ccc(O)cc1)C(=O)N[C@H](C)C(=O)NCC(=O)N[C@@H](C)C(=O)N[C@H](C(=O)N[C@H](C(=O)N[C@@H](CC(N)=O)C(=O)N[C@@H](CC(=O)O)C(=O)N[C@@H](CC(C)C)C(=O)O)C(C)C)C(C)C` [Ac--Tyr--D--Ala--Gly--Ala--Val--Val--Asn--Asp-- Leu--OH], for which the IC50 worked out at 230 µM.

On to `COc1ccc(C[C@H](N)C(=O)N[C@@H](C)C(=O)NCC(=O)N[C@@H](C)C(=O)N[C@H](C(=O)N[C@H](C(=O)N[C@@H](CC(N)=O)C(=O)N[C@@H](CC(=O)O)C(=O)N[C@@H](CC(C)C)C(=O)O)C(C)C)C(C)C)cc1` [H--Tyr(OMe)--Ala--Gly--Ala--Val--Val--Asn--Asp--Leu--OH], for which the IC50 was 88 µM.

On to `CC(C)C[C@H](NC(=O)[C@H](CC(=O)O)NC(=O)[C@H](CC(N)=O)NC(=O)[C@@H](NC(=O)[C@@H](NC(=O)[C@H](C)NC(=O)CNC(=O)[C@H](C)NC(=O)[C@@H](N)Cc1ccc(O)cc1)C(C)C)C(C)C)C(N)=O` [H--Tyr--Ala--Gly--Ala--Val--Val--Asn--Asp--Leu--NH2], for which the IC50 came out at 190 µM.

Consider “Ac-YGAVVNDL-OH [Ac--Tyr--Gly--Ala--Val--Val--Asn--Asp--Leu--OH]”, for which the IC50 turned out to be 150 µM.

The assay is the same for the next values; noted with them: read-out: IC50 (concentration producing 50% of the maximal inhibition of enzyme activity); 75 μg enzyme preparation (21.6 units mg^-1); mean of four assays.
As for `COc1ccc(C[C@H](NC(C)=O)C(=O)N[C@@H](C)C(=O)NCC(=O)N[C@@H](C)C(=O)N[C@H](C(=O)N[C@H](C(=O)N[C@@H](CC(N)=O)C(=O)N[C@@H](CC(=O)O)C(=O)N[C@@H](CC(C)C)C(=O)O)C(C)C)C(C)C)cc1` [Ac--Tyr(OMe)--Ala--Gly--Ala--Val--Val--Asn--Asp--Leu--OH], the IC50 turned out to be 40 µM.

In the case of `CC(=O)N[C@@H](Cc1ccc(O)cc1)C(=O)N[C@@H](C)C(=O)NCC(=O)N[C@@H](C)C(=O)N[C@H](C(=O)N[C@H](C(=O)N[C@@H](CC(N)=O)C(=O)N[C@@H](CC(=O)O)C(=O)N[C@@H](CC(C)C)C(N)=O)C(C)C)C(C)C` [Ac--Tyr--Ala--Gly--Ala--Val--Val--Asn--Asp--Leu--NH2], the IC50 amounted to 76 µM.

As to “Ac-YAVVNDL-OH [Ac--Tyr--Ala--Val--Val--Asn--Asp--Leu--OH]”, the IC50 came to 330 µM.

Regarding “H-KYAGAVVNDL-OH [H--Lys--Tyr--Ala--Gly--Ala--Val--Val--Asn--Asp--Leu--OH]”, the IC50 is 68 µM.

Regarding “H-YAGPVVNDL-OH [H--Tyr--Ala--Gly--Pro--Val--Val--Asn--Asp--Leu--OH]”, the IC50 amounted to 48 µM.
